Measurements reported in patent US9221746B2, “Homo- and hetero-polyamino-acid derivatives of fullerene C60, method for producing same, and pharmaceutical compositions based on said derivatives” (priority 2011, dated 2015).

Test system: A/Aichi/2/69 (H3N2) influenza virus
Assay: Induced influenza pneumonia in mice
[1] = LD70, intramuscularly 50 mg/kg/day
[2] = LD70, intramuscularly 100 mg/kg/day
[3] = LD70, intramuscularly 200 mg/kg/day
[4] = LD70, intraperitoneally 50 mg/kg/day
[5] = LD70, intraperitoneally 100 mg/kg/day
[6] = LD90, intramuscularly 50 mg/kg/day
[7] = LD90, intramuscularly 100 mg/kg/day
[8] = LD90, intramuscularly 200 mg/kg/day
[9] = LD90, intraperitoneally 50 mg/kg/day
[10] = LD90, intraperitoneally 100 mg/kg/day

For “Fullerene Poly(Aminocaproic Acid) of Formula C60(H3){NH(CH2)5COO—}3{NH3^+(CH2)5COOH}3 [Agent No. 1]”, the “Average lifetime (days)” value [1] was 13.3 (1-7 d., 1-8 d.) days, the “Percent death protection (%)” value [1] was 50% and the “Percent body weight change in days post infection” value (shortened to “Percent body weight change”) (LD70, intramuscularly 50 mg/kg/day, day 1) was “+20%”. For the same substance, the “Percent body weight change” value (LD70, intramuscularly 50 mg/kg/day, day 2) was “+22%”, the “Percent body weight change” value (LD70, intramuscularly 50 mg/kg/day, day 3) was “+22%” and the “Percent body weight change” value (LD70, intramuscularly 50 mg/kg/day, day 4) was “+17%”. For the same substance, the “Percent body weight change” value (LD70, intramuscularly 50 mg/kg/day, day 5) was “+11%”, the “Percent body weight change” value (LD70, intramuscularly 50 mg/kg/day, day 7) was “+9%” and the “Percent body weight change” value (LD70, intramuscularly 50 mg/kg/day, day 9) was “+11%”. The “Percent body weight change” value (LD70, intramuscularly 50 mg/kg/day, day 11) was “+19%”, the “Percent body weight change” value (LD70, intramuscularly 50 mg/kg/day, day 13) was “+26%” and the “Percent death protection (%)” value [2] was 70%. The “average lifetime” value [2] was over 16 days, the “Percent body weight change” value (LD70, intramuscularly 100 mg/kg/day, day 1) was “+21%” and the “Percent body weight change” value (LD70, intramuscularly 100 mg/kg/day, day 2) was “+25%”. For the same substance, the “Percent body weight change” value (LD70, intramuscularly 100 mg/kg/day, day 3) was “+27%”, the “Percent body weight change” value (LD70, intramuscularly 100 mg/kg/day, day 4) was “+23%” and the “Percent body weight change” value (LD70, intramuscularly 100 mg/kg/day, day 5) was “+20%”. For the same substance, the “Percent body weight change” value (LD70, intramuscularly 100 mg/kg/day, day 7) was “+21.5%”, the “Percent body weight change” value (LD70, intramuscularly 100 mg/kg/day, day 9) was “+32%” and the “Percent body weight change” value (LD70, intramuscularly 100 mg/kg/day, day 11) was “+35.5%”. The “Percent body weight change” value (LD70, intramuscularly 100 mg/kg/day, day 13) was “+38%”, the “Average lifetime (days)” value [3] was 13.8 (1-7 d., 1-13 d.) days and the “Percent death protection (%)” value [3] was 50%. The “Percent body weight change” value (LD70, intramuscularly 200 mg/kg/day, day 1) was “+25%”, the “Percent body weight change” value (LD70, intramuscularly 200 mg/kg/day, day 2) was “+27%” and the “Percent body weight change” value (LD70, intramuscularly 200 mg/kg/day, day 3) was “+28%”. For the same substance, the “Percent body weight change” value (LD70, intramuscularly 200 mg/kg/day, day 4) was “+24%”, the “Percent body weight change” value (LD70, intramuscularly 200 mg/kg/day, day 5) was “+20%” and the “Percent body weight change” value (LD70, intramuscularly 200 mg/kg/day, day 7) was “+23%”. For the same substance, the “Percent body weight change” value (LD70, intramuscularly 200 mg/kg/day, day 9) was “+22%”, the “Percent body weight change” value (LD70, intramuscularly 200 mg/kg/day, day 11) was “+25%” and the “Percent body weight change” value (LD70, intramuscularly 200 mg/kg/day, day 13) was “+36.5%”. The “Average lifetime (days)” value [4] was 13.4 (2-8 d.) days, the “Percent death protection (%)” value [4] was 50% and the “Percent body weight change” value (LD70, intraperitoneally 50 mg/kg/day, day 1) was “+21%”. The “Percent body weight change” value (LD70, intraperitoneally 50 mg/kg/day, day 2) was “+27%”, the “Percent body weight change” value (LD70, intraperitoneally 50 mg/kg/day, day 3) was “+29%” and the “Percent body weight change” value (LD70, intraperitoneally 50 mg/kg/day, day 4) was “+21%”. For the same substance, the “Percent body weight change” value (LD70, intraperitoneally 50 mg/kg/day, day 5) was “+16%”, the “Percent body weight change” value (LD70, intraperitoneally 50 mg/kg/day, day 7) was “+15%” and the “Percent body weight change” value (LD70, intraperitoneally 50 mg/kg/day, day 9) was “+31%”. The “Percent body weight change” value (LD70, intraperitoneally 50 mg/kg/day, day 11) was “+36%”, the “Percent body weight change” value (LD70, intraperitoneally 50 mg/kg/day, day 13) was “+40%” and the “Average lifetime (days)” value [5] was 13.7 (1-3 d.) days. The “Percent death protection (%)” value [5] was 60%, the “Percent body weight change” value (LD70, intraperitoneally 100 mg/kg/day, day 1) was “+19%” and the “Percent body weight change” value (LD70, intraperitoneally 100 mg/kg/day, day 2) was “+23%”. For the same substance, the “Percent body weight change” value (LD70, intraperitoneally 100 mg/kg/day, day 3) was “+22%”, the “Percent body weight change” value (LD70, intraperitoneally 100 mg/kg/day, day 4) was “+18%” and the “Percent body weight change” value (LD70, intraperitoneally 100 mg/kg/day, day 5) was “+15%”. For the same substance, the “Percent body weight change” value (LD70, intraperitoneally 100 mg/kg/day, day 7) was “+18%”, the “Percent body weight change” value (LD70, intraperitoneally 100 mg/kg/day, day 9) was “+25%” and the “Percent body weight change” value (LD70, intraperitoneally 100 mg/kg/day, day 11) was “+33%”. The “Percent body weight change” value (LD70, intraperitoneally 100 mg/kg/day, day 13) was “+41%”, the “Percent death protection (%)” value (LD70, intraperitoneally 200 mg/kg/day) was 0% and the “Percent body weight change” value (LD70, intraperitoneally 200 mg/kg/day, day 1) was “+7%”. The “Percent body weight change” value (LD70, intraperitoneally 200 mg/kg/day, day 2) was “+6%”, the “Percent body weight change” value (LD70, intraperitoneally 200 mg/kg/day, day 3) was “+5%” and the “Percent body weight change” value (LD70, intraperitoneally 200 mg/kg/day, day 4) was −4%. For the same substance, the “Percent body weight change” value (LD70, intraperitoneally 200 mg/kg/day, day 5) was −3%, the “Percent body weight change” value (LD70, intraperitoneally 200 mg/kg/day, day 7) was −7% and the “Percent body weight change” value (LD70, intraperitoneally 200 mg/kg/day, day 9) was “+4%”. The “Percent body weight change” value (LD70, intraperitoneally 200 mg/kg/day, day 11) was “+6%”, the “Percent body weight change” value (LD70, intraperitoneally 200 mg/kg/day, day 13) was “+15%” and the “Average lifetime (days)” value (LD70, orally 100 mg/kg/day) was 13.1 (1-8 d., 1-10 d., 1-11 d.) days. The “Percent death protection (%)” value (LD70, orally 100 mg/kg/day) was 40%, the “Percent body weight change” value (LD70, orally 100 mg/kg/day, day 1) was “+19%” and the “Percent body weight change” value (LD70, orally 100 mg/kg/day, day 2) was “+23%”. The “Percent body weight change” value (LD70, orally 100 mg/kg/day, day 3) was “+25%”, the “Percent body weight change” value (LD70, orally 100 mg/kg/day, day 4) was “+22%” and the “Percent body weight change” value (LD70, orally 100 mg/kg/day, day 5) was “+16%”. The “Percent body weight change” value (LD70, orally 100 mg/kg/day, day 7) was “+17%”, the “Percent body weight change” value (LD70, orally 100 mg/kg/day, day 9) was “+24%” and the “Percent body weight change” value (LD70, orally 100 mg/kg/day, day 11) was “+43%”. For the same substance, the “Percent body weight change” value (LD70, orally 100 mg/kg/day, day 13) was “+51%”, the “Percent death protection (%)” value (LD70, orally 200 mg/kg/day) was 70% and the “average lifetime” value (LD70, orally 200 mg/kg/day) was over 16 days. For the same substance, the “Percent body weight change” value (LD70, orally 200 mg/kg/day, day 1) was “+26%”, the “Percent body weight change” value (LD70, orally 200 mg/kg/day, day 2) was “+31%” and the “Percent body weight change” value (LD70, orally 200 mg/kg/day, day 3) was “+36%”. The “Percent body weight change” value (LD70, orally 200 mg/kg/day, day 4) was “+36%”, the “Percent body weight change” value (LD70, orally 200 mg/kg/day, day 5) was “+36%” and the “Percent body weight change” value (LD70, orally 200 mg/kg/day, day 7) was “+38%”. For the same substance, the “Percent body weight change” value (LD70, orally 200 mg/kg/day, day 9) was “+47%”, the “Percent body weight change” value (LD70, orally 200 mg/kg/day, day 11) was “+51%” and the “Percent body weight change” value (LD70, orally 200 mg/kg/day, day 13) was “+57%”. For the same substance, the “Average lifetime (days)” value (LD70, orally 300 mg/kg/day) was 12.8 (1-8 d., 2-9 d.) days, the “Percent death protection (%)” value (LD70, orally 300 mg/kg/day) was 40% and the “Percent body weight change” value (LD70, orally 300 mg/kg/day, day 1) was “+24%”. For the same substance, the “Percent body weight change” value (LD70, orally 300 mg/kg/day, day 2) was “+27%”, the “Percent body weight change” value (LD70, orally 300 mg/kg/day, day 3) was “+28%” and the “Percent body weight change” value (LD70, orally 300 mg/kg/day, day 4) was “+24%”. The “Percent body weight change” value (LD70, orally 300 mg/kg/day, day 5) was “+19%”, the “Percent body weight change” value (LD70, orally 300 mg/kg/day, day 7) was “+23%” and the “Percent body weight change” value (LD70, orally 300 mg/kg/day, day 9) was “+35%”. For the same substance, the “Percent body weight change” value (LD70, orally 300 mg/kg/day, day 11) was “+36%”, the “Percent body weight change” value (LD70, orally 300 mg/kg/day, day 13) was “+38%” and the “Average lifetime (days)” value [6] was 11.4 (2-7 d., 1-8 d., 2-11 d) days. The “Percent death protection (%)” value [6] was 40%, the “Average lifetime (days)” value [7] was 13.0 (1-8 d., 1-9 d., 1-11 d.) days and the “Percent death protection (%)” value [7] was 60%. The “Average lifetime (days)” value [8] was 13.1 (1-7 d., 2-11 d) days, the “Percent death protection (%)” value [8] was 60% and the “Average lifetime (days)” value [9] was 11.5 (2-7 d. D-9 d., 2-11 d.) days. For the same substance, the “Percent death protection (%)” value [9] was 40%, the “Average lifetime (days)” value [10] was 10 D3-7 d., 2-8 d., 1-9 d.) days and the “Percent death protection (%)” value [10] was 30%. For the same substance, the “Average lifetime (days)” value (LD90, orally 100 mg/kg/day) was 10.8 (2-7 d., 1-9 d., 2-10 d., 1-11 d) days, the “Percent death protection (%)” value (LD90, orally 100 mg/kg/day) was 30% and the “Average lifetime (days)” value (LD90, orally 200 mg/kg/day) was 13.4 (1-10 d., 2-11 d) days. For the same substance, the “Percent death protection (%)” value (LD90, orally 200 mg/kg/day) was 60%, the increase of lifetime (intramuscular, doses of 100 and 200 mg/kg/day) was “twofold” and the “toxicity for infected mice” value (intraperitoneal, 200 mg/kg/day) was “toxic”. For the same substance, the “efficiency of intraperitoneal treatment” value (intraperitoneal, only in doses of 50 and 100 mg/kg/day) was “efficient”.
